Reference: patent US11000033B2, “Ketone or oxime compound, and herbicide” (NISSAN CHEMICAL CORPORATION, priority 2014, dated 2021)

Experiments:
Format in all cases: in vivo
Scirpus juncoides = experiment: Test Example 1: herbicidal activity, application before weed generation in submerged conditions (symbol B); conditions: application herbicide amount 320 g/ha
In short: (§1)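 Weeds are sown into submerged alluvial soil alongside transplanted 2.5-leaf rice, and the compound, as an emulsion diluted to a set rate, is applied onto the water before emergence. Rating on the 0–5 herbicidal-ratio scale follows 3 weeks of greenhouse growth at 25–30 °C.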

Monochoria vaginalis = experiment: Test Example 1: herbicidal activity, application before weed generation in submerged conditions (symbol C); conditions: application herbicide amount 320 g/ha
In short: as §1

Leptochloa chinensis = experiment: Test Example 3: herbicidal effect by foliage application, Wagner pot (symbol D); conditions: application herbicide amount 320 g/ha; for D (Leptochloa chinensis) herbicidal effect grade: Table 24
In short: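 Plants sown in submerged alluvial soil (water depth 0.1–0.5 cm) in a 25–30 °C greenhouse and grown 14 days. An emulsion of the compound diluted in water to a set herbicide amount was sprayed uniformly on foliage. Effect on each plant scored 3 weeks after application.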

Setaria viridis [1] = experiment: Test Example 4: herbicidal effect by soil treatment (symbol G); conditions: for G: Setaria viridis, herbicidal effect grade: 320 g/ha; for Herbicidal effect grade, G: Setaria viridis: application herbicide amount 320 g/ha
In short: (§2)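 Seeds were sown in sterilized diluvial soil, covered with about 1.5 cm of soil, and the soil surface was sprayed with a water-diluted emulsion of the compound at a predetermined rate. Plants grew in a greenhouse at 25° C. to 30° C.; effects were scored visually 3 weeks after application.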

[2] = system: Echinochloa crus-galli var. crus-galli; experiment: Test Example 4: herbicidal effect by soil treatment (symbol H); conditions: for H: Echinochloa crus-galli var. crus-galli, herbicidal effect grade: 320 g/ha; for Herbicidal effect grade, H: Echinochloa crus-galli var. crus-galli: application herbicide amount 320 g/ha
In short: as §2

Lolium multiflorum Lam. = experiment: Test Example 4: herbicidal effect by soil treatment (symbol K); conditions: for K: Lolium multiflorum Lam., herbicidal effect grade: 320 g/ha; for Herbicidal effect grade, K: Lolium multiflorum Lam.: application herbicide amount 320 g/ha
In short: as §2

Apera spica-venti = experiment: Test Example 4: herbicidal effect by soil treatment (symbol L); conditions: for L: Apera spica-venti, herbicidal effect grade: 320 g/ha; for Herbicidal effect grade, L: Apera spica-venti: application herbicide amount 320 g/ha
In short: as §2

Amaranthus retroflexus = experiment: Test Example 4: herbicidal effect by soil treatment (symbol N); conditions: for N: Amaranthus retroflexus, herbicidal effect grade: 320 g/ha; for Herbicidal effect grade, N: Amaranthus retroflexus: application herbicide amount 320 g/ha
In short: as §2

Stellaria media [3] = experiment: Test Example 4: herbicidal effect by soil treatment (symbol P); conditions: for P: Stellaria media, herbicidal effect grade: 320 g/ha; for Herbicidal effect grade, P: Stellaria media: application herbicide amount 320 g/ha
In short: as §2

corn = experiment: Test Example 4: effect on crop by soil treatment (symbol c); conditions: for c: corn, effect grade on crop: 320 g/ha; for Effect on crop grade, c: corn: application herbicide amount 320 g/ha
In short: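 The test used sterilized diluvial soil. Seed was set down in spots and overlaid with about 1.5 cm of soil before growth in a greenhouse kept at 25° C. to 30° C.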

rapeseed [4] = experiment: Test Example 4: effect on crop by soil treatment (symbol g); conditions: for g: rapeseed, effect grade on crop: 320 g/ha; for Effect on crop grade, g: rapeseed: application herbicide amount 320 g/ha
In short: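 Greenhouse culture at 25° C. to 30° C. followed sowing of seed in spots on sterilized diluvial soil with a soil cover close to 1.5 cm thick.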

Setaria viridis [5] = experiment: Test Example 5: herbicidal effect by foliage application, plastic box (symbol G); conditions: 320 g/ha, 3 weeks after application
In short: (§3)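 Sowing in sterilized diluvial soil, 14 days' greenhouse growth at 25° C. to 30° C., then uniform small-sprayer foliar application of aqueous emulsion dilution; plants scored three weeks afterwards.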

[6] = system: Echinochloa crus-galli var. crus-galli; experiment: Test Example 5: herbicidal effect by foliage application, plastic box (symbol H); conditions: 320 g/ha, 3 weeks after application
In short: as §3

Alopecurus myosuroides = experiment: Test Example 5: herbicidal effect by foliage application, plastic box (symbol J); conditions: 320 g/ha, 3 weeks after application
In short: as §3

Stellaria media [7] = experiment: Test Example 5: herbicidal effect by foliage application, plastic box (symbol P); conditions: 320 g/ha, 3 weeks after application
In short: as §3

wheat = experiment: Test Example 5: effect on crop by foliage application, plastic box (symbol e); conditions: 320 g/ha, 3 weeks after application
In short: (§4)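 Crop and weed seeds sown in spots in sterilized diluvial soil in plastic boxes and covered with about 1.5 cm soil. Plants raised in a greenhouse at 25° C. to 30° C. for foliar application.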

rapeseed [8] = experiment: Test Example 5: effect on crop by foliage application, plastic box (symbol g); conditions: 320 g/ha, 3 weeks after application
In short: as §4

Row | SMILES | Herbicidal effect grade, B: Scirpus juncoides (Scirpus juncoides) | Herbicidal effect grade, C: Monochoria vaginalis (Monochoria vaginalis) | herbicidal effect on D (Leptochloa chinensis), grade 0-5 (Leptochloa chinensis) | G: Setaria viridis, herbicidal effect grade (Setaria viridis [1]) | H: Echinochloa crus-galli var. crus-galli, herbicidal effect grade [2] | K: Lolium multiflorum Lam., herbicidal effect grade (Lolium multiflorum Lam.) | L: Apera spica-venti, herbicidal effect grade (Apera spica-venti) | N: Amaranthus retroflexus, herbicidal effect grade (Amaranthus retroflexus) | P: Stellaria media, herbicidal effect grade (Stellaria media [3]) | c: corn, effect grade on crop (corn) | g: rapeseed, effect grade on crop (rapeseed [4]) | G: Setaria viridis, herbicidal effect (criteria 0-5) (Setaria viridis [5]) | H: Echinochloa crus-galli var. crus-galli, herbicidal effect (criteria 0-5) [6] | J: Alopecurus myosuroides, herbicidal effect (criteria 0-5) (Alopecurus myosuroides) | P: Stellaria media, herbicidal effect (criteria 0-5) (Stellaria media [7]) | e: wheat, effect on crop (criteria 0-5) (wheat) | g: rapeseed, effect on crop (criteria 0-5) (rapeseed [8]) | D (Leptochloa chinensis) herbicidal effect grade (Leptochloa chinensis) | Herbicidal effect grade, G: Setaria viridis (Setaria viridis [1]) | Herbicidal effect grade, H: Echinochloa crus-galli var. crus-galli [2] | further results
1 | CON=C(C)CC1CC(OC(=O)COc2ccc(C(C)=O)cc2)=C(c2c(C)cc(C)cc2C)C1=O (centres unmarked) [1-080] | 5 (Herbicidal ratio of 90% or more (almost completely withered)) | 3 (Herbicidal ratio of 40% or higher and lower than 70%) | 5 (Herbicidal ratio of 90% or more (almost completely withered)) | 5 (Herbicidal ratio of 90% or more (almost completely withered)) | 5 (Herbicidal ratio of 90% or more (almost completely withered)) | 5 (Herbicidal ratio of 90% or more (almost completely withered)) | 5 (Herbicidal ratio of 90% or more (almost completely withered)) | 5 (Herbicidal ratio of 90% or more (almost completely withered)) | 0 (Herbicidal ratio of 5% or lower (almost no effect)) | 4 (Herbicidal ratio of 70% or higher and lower than 90%) | 4 (Herbicidal ratio of 70% or higher and lower than 90%) | 5 (Herbicidal ratio of 90% or more (almost completely withered)) | 5 (Herbicidal ratio of 90% or more (almost completely withered)) | 5 (Herbicidal ratio of 90% or more (almost completely withered)) | 0 (Herbicidal ratio of 5% or lower (almost no effect)) | 4 (Herbicidal ratio of 70% or higher and lower than 90%) | 4 (Herbicidal ratio of 70% or higher and lower than 90%) |  |  |  | 
2 | CON=C(C)CC1CC(OC(=O)COCC(F)(F)F)=C(c2c(C)cc(C)cc2C)C1=O (centres unmarked) [1-092] | 5 (Herbicidal ratio of 90% or more (almost completely withered)) | 0 (Herbicidal ratio of 5% or lower (almost no effect)) | 5 (Herbicidal ratio of 90% or more (almost completely withered)) | 5 (Herbicidal ratio of 90% or more (almost completely withered)) | 5 (Herbicidal ratio of 90% or more (almost completely withered)) | 5 (Herbicidal ratio of 90% or more (almost completely withered)) | 5 (Herbicidal ratio of 90% or more (almost completely withered)) | 3 (Herbicidal ratio of 40% or higher and lower than 70%) | 0 (Herbicidal ratio of 5% or lower (almost no effect)) | 5 (Herbicidal ratio of 90% or more (almost completely withered)) | 4 (Herbicidal ratio of 70% or higher and lower than 90%) | 5 (Herbicidal ratio of 90% or more (almost completely withered)) | 5 (Herbicidal ratio of 90% or more (almost completely withered)) | 4 (Herbicidal ratio of 70% or higher and lower than 90%) | 0 (Herbicidal ratio of 5% or lower (almost no effect)) | 4 (Herbicidal ratio of 70% or higher and lower than 90%) | 4 (Herbicidal ratio of 70% or higher and lower than 90%) |  |  |  | 
3 | CON=C(CC1CC(O)=C(c2c(C)cc(Br)cc2C)C1=O)C(C)C (centres unmarked) [9-001] | 0 (Herbicidal ratio of 5% or lower (almost no effect)) | 0 (Herbicidal ratio of 5% or lower (almost no effect)) |  |  |  |  |  |  |  |  |  |  |  |  |  |  |  | 4 (Herbicidal ratio of 70% or higher and lower than 90%) | 4 (Herbicidal ratio of 70% or higher and lower than 90%) | 5 (Herbicidal ratio of 90% or more (almost completely withered)) | Herbicidal effect grade, K: Lolium multiflorum Lam. (Lolium multiflorum Lam.): 5 (Herbicidal ratio of 90% or more (almost completely withered)); Herbicidal effect grade, L: Apera spica-venti (Apera spica-venti): 4 (Herbicidal ratio of 70% or higher and lower than 90%); Herbicidal effect grade, N: Amaranthus retroflexus (Amaranthus retroflexus): 1 (Herbicidal ratio of 5% or higher and lower than 20%); Herbicidal effect grade, P: Stellaria media (Stellaria media [3]): 0 (Herbicidal ratio of 5% or lower (almost no effect)); Effect on crop grade, c: corn (corn): 0 (Herbicidal ratio of 5% or lower (almost no effect)); Effect on crop grade, g: rapeseed (rapeseed [4]): 0 (Herbicidal ratio of 5% or lower (almost no effect)); G: Setaria viridis, herbicidal effect grade (Setaria viridis [5]): 4 (Herbicidal ratio of 70% or higher and lower than 90%); H: Echinochloa crus-galli var. crus-galli, herbicidal effect grade [6]: 5 (Herbicidal ratio of 90% or more (almost completely withered)); J: Alopecurus myosuroides, herbicidal effect grade (Alopecurus myosuroides): 3 (Herbicidal ratio of 40% or higher and lower than 70%); P: Stellaria media, herbicidal effect grade (Stellaria media [7]): 0 (Herbicidal ratio of 5% or lower (almost no effect)); e: wheat, effect on crop grade (wheat): 0 (Herbicidal ratio of 5% or lower (almost no effect)); g: rapeseed, effect on crop grade (rapeseed [8]): 2 (Herbicidal ratio of 20% or higher and lower than 40%)
4 | CON=C(CC1CC(O)=C(c2c(C)cc(Br)cc2C)C1=O)C1CC1 (centres unmarked) [9-002] | 2 (Herbicidal ratio of 20% or higher and lower than 40%) | 0 (Herbicidal ratio of 5% or lower (almost no effect)) |  |  |  |  |  |  |  |  |  |  |  |  |  |  |  | 5 (Herbicidal ratio of 90% or more (almost completely withered)) | 5 (Herbicidal ratio of 90% or more (almost completely withered)) | 5 (Herbicidal ratio of 90% or more (almost completely withered)) | Herbicidal effect grade, K: Lolium multiflorum Lam. (Lolium multiflorum Lam.): 5 (Herbicidal ratio of 90% or more (almost completely withered)); Herbicidal effect grade, L: Apera spica-venti (Apera spica-venti): 5 (Herbicidal ratio of 90% or more (almost completely withered)); Herbicidal effect grade, N: Amaranthus retroflexus (Amaranthus retroflexus): 0 (Herbicidal ratio of 5% or lower (almost no effect)); Herbicidal effect grade, P: Stellaria media (Stellaria media [3]): 0 (Herbicidal ratio of 5% or lower (almost no effect)); Effect on crop grade, c: corn (corn): 3 (Herbicidal ratio of 40% or higher and lower than 70%); Effect on crop grade, g: rapeseed (rapeseed [4]): 0 (Herbicidal ratio of 5% or lower (almost no effect)); G: Setaria viridis, herbicidal effect grade (Setaria viridis [5]): 5 (Herbicidal ratio of 90% or more (almost completely withered)); H: Echinochloa crus-galli var. crus-galli, herbicidal effect grade [6]: 5 (Herbicidal ratio of 90% or more (almost completely withered)); J: Alopecurus myosuroides, herbicidal effect grade (Alopecurus myosuroides): 5 (Herbicidal ratio of 90% or more (almost completely withered)); P: Stellaria media, herbicidal effect grade (Stellaria media [7]): 0 (Herbicidal ratio of 5% or lower (almost no effect)); e: wheat, effect on crop grade (wheat): 3 (Herbicidal ratio of 40% or higher and lower than 70%); g: rapeseed, effect on crop grade (rapeseed [8]): 4 (Herbicidal ratio of 70% or higher and lower than 90%)
